From ChEMBL document CHEMBL6103672, “Discovery of HMPL-306 (Ranosidenib), a New Potent and Selective Dual Inhibitor of Mutant IDH1 and 2 in Clinical Development for Cancer Treatment” (ACS Med Chem Lett, 2025)

How the values were obtained:
[1] = Inhibition of IDH2 R172K mutant in human HEK293 cells incubated for 72 hrs by measuring 2-HG production by fluorescence based analysis; format: functional, cell-based; settings: HEK293, 72 h
[2] = Inhibition of IDH1 R132H mutant in human U-87 MG cells incubated for 72 hrs by measuring 2-HG production by fluorescence based analysis; format: functional, cell-based, U-87MG ATCC; settings: Homo sapiens, U-87 MG, 72 h
[3] = AUC(0 to infinity) in male ICR mouse at 10 mg/kg, po measured after 8 hrs by LC/MS/MS analysis; format: ADME, organism-based; settings: in vivo
[4] = Metabolic stability in male SD rat liver microsomes assessed as parent compound remaining at 1 uM measured after 30 mins in presence of NADPH by LC-MS analysis; format: ADME, Microsome; settings: Sprague-Dawley, read-out: Stability
[5] = Ratio of drug concentration in brain to plasma of BALB/c nude mouse xenografted with human U-87 MG cells harboring IDH2 R140Q mutant at 50 mg/kg measured after 16 hrs by LC/MS/MS analysis; format: ADME, organism-based; settings: read-out: BPR
[6] = In vivo inhibition of 2-HG in BALB/c nude mouse xenografted with human HT-1080 cells harboring IDH1 R132C mutant at 25 mg/kg, po measured after 16 to 40 hrs post dose; format: functional; settings: time 16-40 hrs
[7] = Half life in male ICR mouse at 2.5 mg/kg, iv measured after 8 hrs by LC/MS/MS analysis; format: ADME, organism-based; settings: in vivo
[8] = AUC(0 to t) in male Sprague-Dawley rat at 1 mg/kg, iv measured after 144 hrs by LC/MS/MS analysis; format: ADME, organism-based; settings: in vivo
[9] = Volume of distribution at steady state in male Sprague-Dawley rat at 1 mg/kg, iv measured after 24 hrs by LC/MS/MS analysis; format: ADME, organism-based; settings: in vivo, read-out: Vdss
[10] = Oral bioavailability in male ICR mouse at 10 mg/kg measured after 8 hrs by LC/MS/MS analysis; format: ADME, organism-based; settings: in vivo
[11] = Half life in male Sprague-Dawley rat at 5 mg/kg, po measured after 24 hrs by LC/MS/MS analysis; format: ADME, organism-based; settings: in vivo
[12] = Metabolic stability in male ICR mouse liver microsomes assessed as parent compound remaining at 1 uM measured after 30 mins in presence of NADPH by LC-MS analysis; format: ADME, Microsome; settings: read-out: Stability
[13] = Inhibition of IDH2 R140Q mutant in human U-87 MG cells incubated for 72 hrs by measuring 2-HG production by fluorescence based analysis; format: functional, cell-based, U-87MG ATCC; settings: Homo sapiens, U-87 MG, 72 h
[14] = Clearance in male ICR mouse at 2.5 mg/kg, iv measured after 8 hrs by LC/MS/MS analysis; format: ADME, organism-based; settings: in vivo
[15] = Cmax in male ICR mouse at 10 mg/kg, po measured after 8 hrs by LC/MS/MS analysis; format: ADME, organism-based; settings: in vivo
[16] = Half life in male ICR mouse at 10 mg/kg, po measured after 8 hrs by LC/MS/MS analysis; format: ADME, organism-based; settings: in vivo
[17] = Inhibition of IDH2 R140Q mutant in human TF-1 cells incubated for 72 hrs by measuring 2-HG production by fluorescence based analysis; format: functional, cell-based; settings: TF-1, 72 h
[18] = AUC(0 to infinity) in male ICR mouse at 2.5 mg/kg, iv measured after 8 hrs by LC/MS/MS analysis; format: ADME, organism-based; settings: in vivo
[19] = Clearance in male Sprague-Dawley rat at 1 mg/kg, iv measured after 24 hrs by LC/MS/MS analysis; format: ADME, organism-based; settings: in vivo
[20] = AUC(0 to t) in male ICR mouse at 2.5 mg/kg, iv measured after 24 hrs by LC/MS/MS analysis; format: ADME, organism-based; settings: in vivo
[21] = Half life in male Sprague-Dawley rat at 1 mg/kg, iv measured after 24 hrs by LC/MS/MS analysis; format: ADME, organism-based; settings: in vivo
[22] = AUC(0 to infinity) in male Sprague-Dawley rat at 1 mg/kg, iv measured after 24 hrs by LC/MS/MS analysis; format: ADME, organism-based; settings: in vivo
[23] = Inhibition of IDH1 R132C mutant in human HT-1080 cells incubated for 72 hrs by measuring 2-HG production by fluorescence based analysis; format: functional, cell-based; settings: HT-1080, 72 h
[24] = AUC(0 to t) in male Sprague-Dawley rat at 5 mg/kg, po measured after 144 hrs by LC/MS/MS analysis; format: ADME, organism-based; settings: in vivo
[25] = Ratio of drug concentration in brain to plasma of BALB/c nude mouse xenografted with human U-87 MG cells harboring IDH2 R140Q mutant at 50 mg/kg measured after 24 hrs by LC/MS/MS analysis; format: ADME, organism-based; settings: read-out: BPR
[26] = AUC(0 to t) in male ICR mouse at 10 mg/kg, po measured upto 24 hrs by LC/MS/MS analysis; format: ADME, organism-based; settings: in vivo
[27] = AUC(0 to infinity) in male Sprague-Dawley rat at 5 mg/kg, po measured after 24 hrs by LC/MS/MS analysis; format: ADME, organism-based; settings: in vivo
[28] = Volume of distribution at steady state in male ICR mouse at 2.5 mg/kg, iv measured after 8 hrs by LC/MS/MS analysis; format: ADME, organism-based; settings: in vivo, read-out: Vdss
[29] = target: T1, UGT1A1 (Homo sapiens, UniProt P22309); assay: Inhibition of UGT1A1 (unknown origin) at 10 uM relative to control; format: ADME
T1 sequence (P22309 whole entry): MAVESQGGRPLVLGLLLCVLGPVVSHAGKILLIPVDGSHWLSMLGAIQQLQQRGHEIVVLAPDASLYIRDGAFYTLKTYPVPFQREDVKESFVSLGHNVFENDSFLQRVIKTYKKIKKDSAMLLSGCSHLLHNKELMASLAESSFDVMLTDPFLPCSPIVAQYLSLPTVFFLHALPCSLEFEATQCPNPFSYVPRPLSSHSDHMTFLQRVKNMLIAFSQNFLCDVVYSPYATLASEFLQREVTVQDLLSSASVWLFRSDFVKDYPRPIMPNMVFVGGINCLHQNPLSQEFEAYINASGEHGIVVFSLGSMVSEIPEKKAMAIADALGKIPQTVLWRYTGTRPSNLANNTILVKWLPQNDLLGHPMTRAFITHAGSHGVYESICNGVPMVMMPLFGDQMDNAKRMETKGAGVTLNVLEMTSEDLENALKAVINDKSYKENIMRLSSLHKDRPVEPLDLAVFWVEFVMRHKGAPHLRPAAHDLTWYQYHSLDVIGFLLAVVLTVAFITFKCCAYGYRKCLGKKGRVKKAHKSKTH

[30] = Cmax in male Sprague-Dawley rat at 5 mg/kg, po measured after 24 hrs by LC/MS/MS analysis; format: ADME, organism-based; settings: in vivo
[31] = Apparent permeability across basolateral to apical side in human Caco-2 cells at 10 uM incubated for 1 hrs by LC-MS/MS analysis
[32] = Inhibition of IDH1 R132H mutant in human TF-1 cells incubated for 72 hrs by measuring 2-HG production by fluorescence based analysis; format: functional, cell-based; settings: TF-1, 72 h
[33] = Apparent permeability across apical to basolateral side in human Caco-2 cells at 10 uM incubated for 1 hrs by LC-MS/MS analysis
[34] = In vivo inhibition of 2-HG in BALB/c nude mouse xenografted with human U-87 MG cells harboring IDH2 R140Q mutant at 25 mg/kg, po measured after 16 hrs post dose; format: functional

Compound `C[C@@H](Nc1nc(N[C@H](C)C(F)(F)F)nc(C2=C(F)[C@H](O)C(F)(F)CC2)n1)C(F)(F)F` [RANOSIDENIB] has an IC50 [1] of 425 nM, an IC50 [2] of 50 nM and an AUC(0-inf) [3] of 62000 ng·h/mL. For the same compound, the remaining at 0.5 h, 1 µM [4] was 99.5%, the Kp at 16 h [5] was 2.8 and the inhibition in vivo at 25 mg/kg [6] was at least 90%. It also gave a half-life [7] of 10.6 h, an AUC(0-t) at 144 h [8] of 17100 ng·h/mL and a Vd [9] of 3.67 L/kg. The bioavailability [10] was 84.2%, the half-life [11] was 50.4 h and the remaining at 0.5 h, 1 µM [12] was 98.4%. For the same compound, the IC50 [13] was 31 nM, the clearance [14] was 3.3 mL/min/kg and the Cmax [15] was 2050 ng/mL. The half-life [16] was 20.2 h, the IC50 [17] was 21 nM and the AUC(0-inf) [18] was 12700 ng·h/mL. For the same compound, the clearance [19] was 0.8 mL/min/kg, the AUC(0-t) at 24 h [20] was 10400 ng·h/mL and the half-life [21] was 49.9 h. For the same compound, the AUC(0-inf) [22] was 19800 ng·h/mL, the IC50 [23] was 26 nM and the AUC(0-t) at 144 h [24] was 96600 ng·h/mL. For the same compound, the Kp at 24 h [25] was 2.9, the AUC(0-t) at 24 h [26] was 35000 ng·h/mL and the AUC(0-inf) [27] was 112000 ng·h/mL. The Vd [28] was 2.57 L/kg, the inhibition at 10 µM [29] was 46.7% and the Cmax [30] was 1490 ng/mL. The Papp B→A at 1 h, 10 µM [31] was 24 ×10⁻⁶ cm/s, the IC50 [32] was 31 nM and the Papp A→B at 1 h, 10 µM [33] was 53.3 ×10⁻⁶ cm/s. The inhibition in vivo at 25 mg/kg [34] was 96%.
